Assay results reported in patent publication US20100324017A1, “ACYLGUANIDINE DERIVATIVE” (priority 2007, published 2010).

Key:
MAP-induced overactivity = test: MAP (methane phetamine)-induced overactivity in mice, kinetic momentum by infrared sensor; assay type: in vivo; settings: mouse, oral, MAP 1 mg/kg i.p., total 60 minutes, P<0.05
Method: Evaluation of Various Drugs Relative to a Drug for Increasing the Kinetic Momentum of Mice (Methane Phetamine, MK-801) (Method for Measuring a Kinetic Momentum by Discharge of an Infrared Ray)
The effect of improving the positive symptoms and the negative symptoms of schizophrenia by the compound (I) was evaluated by measuring the kinetic momentum that had been […] with administration of the compound in a model causing the symptoms by methane phetamine (which is hereinafter simply referred to as MAP) and MK-801.
Species: Male ICR mouse/number of animals (number of animals per group): 8 to 12 animals per group
The animal was left in a laboratory for 1 hour or longer to be acclimated to the environment, and the animal was taken from the feeding cage, orally administered with a compound to be tested, and then returned to the feeding cage. After 30 minutes, it was put into a cage for measurement, and the kinetic momentum of just the compound to be tested was measured. Further, after 30 minutes, the animal was taken out, and intraperitoneally administered with a drug for increasing kinetic momentum (MAP; 1 mg/kg or MK-801; 0.3 mg/kg, all dissolved in physiological saline), and its kinetic momentum was measured for a certain time (60 minutes) using a device for measuring the kinetic momentum by means of an infrared ray sensor (CompACT AMS, Muromachi Kikai Co., Ltd.). Also, the test was carried out under non-fasting.
The 60 minutes of measurements was classified into three groups: a first half 30 minutes, a second half 30 minutes, and a total 60 minutes. For a normal mouse (a mouse administered with physiological saline) and a mouse administered with the drug for increasing kinetic momentum, a Student's T test was used for evaluation in each interval. For the group administered with the compound to be tested, a solvent (vehicle) group and a Dunnett's T test were carried out and evaluated. For the evaluation, in case where there was a significant (P<0.05) difference for the total 60 minutes, it was considered to be effective.

[1] = system: PCP-induced prepulse inhibition (PPI) disorder; test: Disorder of PCP-induced prepulse inhibition (PPI) in a rat; assay type: in vivo; settings: oral, PCP 1 mg/kg s.c., % PPI
Method: An Improvement Effect for a Disorder of PCP-Induced Prepulse Inhibition (PPI) in a Rat
A startle amplitude occurs in humans to which an sound stimulus has been given, but in healthy human, this startle amplitude is inhibited by the giving of a weak sound stimulus that precedes the sound stimulus. For a patient with schizophrenia, the inhibitory function similarly declined. It is known that when a rat is administered with PCP (phencyclidine), there is a symptom similar to the negative symptom of schizophrenia in humans. Using this model, the improvement effect of the compound (I) for the information processing disorder included in cognitive impairment of schizophrenia was evaluated.
Species: Male Wistar rat/number of the animals (number of animals per group): 12 animals per group
Startle amplitude measuring device for small animals: an SR-LAB ABS system (manufactured by San Diego Instruments)
An animal holder, to which a Plexiglas-made cylinder for animal storage having a diameter of 8.2 cm was attached, was positioned in the upper part of a Plexiglas-made frame in a measurement box. In the measurement box, a sound-insulating treatment and ventilation (FAN) were carried out. Sound was administered by a speaker attached to the 24 cm upper part of the cylinder. The movement of the animals in the cylinder was detected by a transducer attached in the lower part of the frame and recorded by a microcomputer via an interface.
The experiment was initiated after the animals were put into the chamber for measurement and had spent 10 minutes adapting to the measurement environment. Basically, at 35 minutes after the compound to be tested was orally administered, 1 mg/kg of PCP was subcutaneously administered (1 ml/kg). Five minutes later, the rats were put into a chamber for measurement, allowed to adapt for 10 minutes, and the measurement was then initiated. A white noise of 65 dB (for all frequencies, a disordered noise having a constant energy per unit band) used as a background noise was always played through the break periods and the sessions. The three types of trials as shown below were carried out in a random order 10 times for each type with 30 times in total. Each trial was carried out at a pseudo-random interval of 20 to 60 seconds with an average of 40 seconds. A pulse was defined as a white noise of 120 dB, 20 msec, and a prepulse was defined as a white noise of 70, 80 dB, 20 msec.
The startle amplitude of the animal was measured for 100 msec from the initiation of the pulse, and the maximum value was taken as a “maximum startle amplitude (Vmax))”. The “maximum startle amplitude” for the ten times for each of the three types of trials were averaged, and taken as a “startle amplitude (simply referred to as SA)” under the stimulation condition.
The % prepulse inhibition (% PPI) was calculated in the following equation in the PP80 & P trial of 3) above.
% Prepulse inhibition (% PPI)=(Startle amplitude at P-alone trial (SA)−Startle amplitude (SA) at a PP80 & P trial)/Startle amplitude at P alone trial×100
The measured value was expressed as an average value (mean±SE). First, the startle amplitudes (SA) were statistically analyzed. […] For the measured data of % PPI, the normal group and the control group (the group administered with PCP) were compared by a Student t-test, and for the control group and the group administered with the compound to be tested were compared using a Dunnett evaluation. […] The effect of the compound to be tested was assessed with % PPI.

| Structure (SMILES) | inhibition of MAP-induced overactivity (MAP-induced overactivity; dose 0.01 mg/kg) | improvement of the disorder of PCP prepulse inhibition (PPI) ([1]; dose 0.03 mg/kg) | improvement of the disorder of PCP prepulse inhibition (PPI) ([1]; dose 0.1 mg/kg) | inhibition of MAP-induced overactivity (MAP-induced overactivity; dose 0.003 mg/kg) | improvement of the disorder of PCP prepulse inhibition (PPI) ([1]; dose 0.3 mg/kg) |
| --- | --- | --- | --- | --- | --- |
| NC(N)=NC(=O)c1ccc2c3ccccc3n(C3CCOCC3)c2c1 [Example 25] | significantly inhibited | significantly improved | significantly improved |  |  |
| CC(C)n1c2cc(C(=O)N=C(N)N)ccc2c2c(CO)cccc21 [Example 65] |  |  | significantly improved | significantly inhibited | significantly improved |
